Reference: PubChem BioAssay AID850 (SRMLSC, 2007)
Calls of active or inactive are those of the source. How the calls were made is not given here.

How the values were obtained:
[1] = system: Saccharomyces cerevisiae growth inhibition, permissive control; test: concentration-response yeast growth inhibition under permissive conditions, counter-assay for yeast lifespan-shortening chemical project (AID 850);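 further: growth read as optical density after one day of incubation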
[2] = as above; details: Saccharomyces cerevisiae growth inhibition, permissive control, measured here: maximum growth inhibition, stronger effect = higher value

Structure (SMILES) | IC50 [1] | inhibition ([2]; at 50 µM) [%] | other results
O=C(COc1ccccc1)N1CCN=C1SCc1cccnc1 | > 100 µM (inactive) |  | inhibition ([2]; at 0.781 µM): 11.2%
CC1=CC(=O)c2ccccc2C1=O | 17.7 µM | 88.6 | 
COc1cc2c(cc1OC)CN(C(=O)CSc1nnc3scc(-c4ccccc4)n13)CC2 | > 100 µM (inactive) |  | inhibition ([2]; at 0.781 µM): 17.1%
CCCCCCCCCCCCCCCC[n+]1cccc(C(=O)N(CC)CC)c1 | 1.82 µM | 101 | 
O=C(O)CCC(=O)N1CCN(c2nc(-c3ccccc3Cl)c3cc(Br)ccc3n2)CC1 | 32 µM | 98.3 | 
Cn1c(C(C#N)C(=O)c2ccco2)nc2ccccc21 (centres undefined) | > 100 µM (inactive) | 17.5 | 
CC(C)(Oc1ccc(Cl)cc1)C(=O)NC1=NN(c2ccccc2)C(=O)C1 | 21.5 µM | 88.3 | 
CC(C)CC(=O)/C(=C\c1ccc(Cl)cc1Cl)n1cncn1 | 11.7 µM | 100 | 
Cc1cc(C(=O)COC(=O)c2ccc[nH]c2=O)c(C)n1-c1ccc(Br)cc1 | > 100 µM (inactive) | 4.13 | 
CNc1nnc(-c2cc3cc(Cl)ccc3oc2=O)s1 | > 100 µM (inactive) |  | inhibition ([2]; at 25 µM): 12.5%
O=C(O)c1cc2c(s1)-c1ccccc1CC2 | 50.5 µM | 47.3 | 
COC1=C(N)C(=O)c2nc(-c3nc(C(=O)O)c(C)c(-c4ccc(OC)c(OC)c4O)c3N)ccc2C1=O | 0.463 µM | 98.7 | 
CCCCOc1ccc(C(=O)NNC(=S)NC(=O)CC)cc1 | 24.8 µM | 81.6 | 
c1ccc2c(c1)C(=Nn1cnnc1)c1ccccc1-2 | > 100 µM (inactive) |  | inhibition ([2]; at 0.391 µM): 7.85%
CCOC(=O)C1=Nc2ccccc2C1=[N+]=[N-] | 5.45 µM | 99.2 | 
O=[N+]([O-])c1ccc(N/N=C2/CCCCC2c2ccccn2)cc1 (centres undefined) | 1.94 µM | 98.4 | 
CCc1ccc(C2NC(=S)NC3=C2C(=O)N(c2ccccc2OC)C(c2ccc(CC)cc2)N3)cc1 (centres undefined) | > 100 µM (inactive) |  | inhibition ([2]; at 0.781 µM): 2.18%
CCCC1COC(Cn2cncn2)(c2ccc(C)cc2)O1 (centres undefined) | 1.83 µM |  | inhibition ([2]; at 25 µM): 94.7%
N#CC(c1cccc(Cl)c1)c1ccc2c(C(F)(F)F)cc(C(F)(F)F)nc2n1 (centres undefined) | > 100 µM (inactive) | 4.48 | 
O=[N+]([O-])c1ccccc1-c1cc(-c2cc(Cl)ccc2O)n[nH]1 | > 100 µM (inactive) |  | inhibition ([2]; at 12.5 µM): 16.3%
COc1cccc(C(=O)O/N=C(\N)Cc2ccc(Cl)cc2)c1 | 6.32 µM |  | inhibition ([2]; at 12.5 µM): 97.5%

Structure (SMILES) | IC50 [1] | inhibition ([2]; at 50 µM) [%] | other results
Oc1c(C(Nc2nc3ccccc3s2)c2ccco2)ccc2cccnc12 (centres undefined) | > 100 µM (inactive) | 23.2 | 
CCCCN=C(NNc1ccc(Br)cc1)C(=O)OCC | 5.51 µM | 97.9 | 
COc1cc(OC)nc(NC(=O)CS(=O)(=O)c2ccccc2)n1 | 17.4 µM | 77.3 | 
N/C(Cc1ccc(Cl)cc1Cl)=N\OC(=O)c1cccs1 | 0.925 µM |  | inhibition ([2]; at 12.5 µM): 100%
c1ccc2c(c1)nnn1c3ccccc3nc21 | > 100 µM (inactive) |  | inhibition ([2]; at 3.125 µM): 14.6%
CCCCS(=O)(=O)/C=C\C=C/S(=O)(=O)CCCC | > 100 µM (inactive) |  | inhibition ([2]; at 6.25 µM): 21.2%
Oc1ccc(/C=N/N=C(c2ccccc2)c2ccccc2)c(O)c1O | 30.1 µM | 79.8 | 
O=C(Nc1nc(-c2ccccn2)cs1)c1ccc(Br)s1 | 5.55 µM |  | inhibition ([2]; at 12.5 µM): 99.4%
c1ccc(-c2ccc(OCCCn3cncn3)cc2)cc1 | 34.1 µM |  | inhibition ([2]; at 25 µM): 57.7%
C/C(O)=c1/ccc2cccc3nc(C)nc1c23 | > 100 µM (inactive) |  | inhibition ([2]; at 25 µM): 24.2%
CCOc1cc(C2CC(=O)N3CN(C4CCCCC4)CSC3=C2C#N)ccc1O (centres undefined) | > 100 µM (inactive) |  | inhibition ([2]; at 0.781 µM): 8.66%
Cc1ccc(/C(N)=N/OC(=O)c2ccc(C)cc2Cl)cc1 | 8.59 µM | 98.4 | 
O=C1C(=O)c2ccccc2-c2ccccc21 | 1.01 µM | 99.2 | 
COc1ccc(Nc2cnn(-c3nc4ccccc4s3)c(=O)c2Cl)cc1 | 44.2 µM | 60.8 | 
Cc1ccc(O)c(-c2cc(-c3ccccc3C)[nH]n2)c1 | 44.7 µM | 56.5 | 
CC1(C)CC(=NOC(=O)c2ccccc2)CC(C)(C)N1O | 14 µM | 98.6 | 
Oc1c(Br)cc(Br)cc1C=Nc1ccc2c(c1)OCO2 | 36.5 µM | 86 | 
CCCCSc1nc(C)c(C(C)=O)cc1C#N | > 100 µM (inactive) |  | inhibition ([2]; at 12.5 µM): 3.31%
CCOC(=O)C(=NCCCN(C)C)NNc1ccc(Br)cc1 | 5.8 µM | 97.4 | 
COc1ccc(-c2cc3nc(C)cc(N4CC(C)CC(C)C4)n3n2)cc1 (centres undefined) | 50.7 µM | 48.3 | 
Cc1ccc2c(c1)-c1nc3ccccc3cc1C2=NC1CCCCC1 | > 100 µM (inactive) | 16.8 | 

Structure (SMILES) | IC50 [1] | inhibition ([2]; at 50 µM) [%] | other results
O=C(Nc1cccc(N=Cc2cc(Br)cc(Br)c2O)c1)c1ccco1 | 11.1 µM | 100 | 
N/C(Cc1ccccc1)=N\OC(=O)c1cccc2ccccc12 | 8.26 µM | 100 | 
O=C(O)c1ccc(SCc2cnc(Cl)s2)cc1 | 4.91 µM | 99.2 | 
Cc1csc(NC(=O)Cc2coc3cc(C)c(C(C)C)cc23)n1 | > 100 µM (inactive) |  | inhibition ([2]; at 3.125 µM): 10.1%
CC1(C)Cc2c(C#N)c(N)sc(=S)c2CO1 | > 100 µM (inactive) |  | inhibition ([2]; at 12.5 µM): 23.1%
NNC(=O)c1ccc(COc2cccc3ccccc23)cc1 | 20 µM | 94.7 | 
COc1ccc(Br)cc1C1CC(=O)N2CN(C)CSC2=C1C#N (centres undefined) | > 100 µM (inactive) |  | inhibition ([2]; at 1.563 µM): 17%
Oc1c(CN2CCc3ccccc3C2)cc(Cl)c2cccnc12 | 11.5 µM | 101 | 
N#C/C(=C\c1ccc([N+](=O)[O-])o1)c1nc2ccccc2[nH]1 | > 100 µM (inactive) |  | inhibition ([2]; at 6.25 µM): 21.4%
COc1cccc2c(=O)c3c(cnn3C)n(C)c12 | > 100 µM (inactive) |  | inhibition ([2]; at 25 µM): 21.2%
O=C(OCn1ncc(Br)c(Br)c1=O)c1ccccc1Cl | > 100 µM (inactive) |  | inhibition ([2]; at 0.781 µM): 10.5%
O=c1oc2ccccc2c(N2CCCC2)c1CN1CCCC1 | > 100 µM (inactive) |  | inhibition ([2]; at 12.5 µM): 11.7%
COc1ccc(/C=C/C(=O)c2cc(Br)ccc(=O)c2O)cc1 | 16.1 µM | 93.6 | 
c1ccc(-n2c(-c3ccco3)nnc2-c2ccco2)cc1 | > 100 µM (inactive) |  | inhibition ([2]; at 12.5 µM): 22.7%
CCCCOC(=O)Sc1nc2ccccc2o1 | 14.5 µM | 101 | 
CCOC(=O)CSc1nnc(CSc2nc(N)c3c(C)c(C)sc3n2)n1-c1ccccc1 | > 100 µM (inactive) |  | inhibition ([2]; at 0.391 µM): 7.59%
CCOC(=O)c1sc(=S)n(-c2cc(F)ccc2F)c1N | > 100 µM (inactive) |  | inhibition ([2]; at 25 µM): 29.2%
CCN1/C(=C/c2ccc3ccc(C)cc3[n+]2CC)Sc2ccccc21 | 21.7 µM | 92.9 | 
O=C(c1cc(-c2ccccc2O)on1)N1CCc2ccccc2C1 | > 100 µM (inactive) |  | inhibition ([2]; at 0.391 µM): 16.3%
Nc1c(Nc2ccccc2)c2ccccc2oc1=O | 47.1 µM | 47.2 | 
Clc1ccc(COC(Cn2ccnc2)c2ccc(Cl)cc2Cl)c(Cl)c1 (centres undefined) | < 0.098 µM | 101 | 

Structure (SMILES) | IC50 [1] | inhibition ([2]; at 50 µM) [%] | other results
COc1cc(-c2nc3ccc4ccccc4c3c3c2CCC3)ccc1O | > 100 µM (inactive) |  | inhibition ([2]; at 3.125 µM): 11.9%
Cc1ccc(COc2ccc(Br)cc2/C=N/O)cc1 | > 100 µM (inactive) |  | inhibition ([2]; at 0.098 µM): -1.78%
CCc1ccc(/C=C/C(=O)c2cc(Br)ccc(=O)c2O)cc1 | 13.3 µM | 83.6 | 
CCOC(=O)N1CCN(C(=O)Cn2nc(C)c3sc4ccccc4c3c2=O)CC1 | > 100 µM (inactive) |  | inhibition ([2]; at 25 µM): 12.1%
CC(NC(=O)/C(C#N)=C/c1ccc(Cl)c([N+](=O)[O-])c1)c1ccccc1 (centres undefined) | > 100 µM (inactive) | 15 | 
C/C(=N\Nc1ccc(Cl)c(Cl)c1)c1ccc(-n2ccnc2)cc1 | 26.7 µM | 96.7 | 
O=C(Oc1c(Cl)cc(Cl)c2cccnc12)c1cccc([N+](=O)[O-])c1 | 1.44 µM |  | inhibition ([2]; at 12.5 µM): 99.4%
Cc1ccc(-c2nc(N)sc2-c2ccccc2)cc1C | > 100 µM (inactive) |  | inhibition ([2]; at 6.25 µM): 16%
CCSc1nc2ccccc2n1S(=O)(=O)c1ccccc1 | > 100 µM (inactive) |  | inhibition ([2]; at 3.125 µM): 26.4%
Cn1c(-c2ccco2)nc2cc3ccccc3cc21 | 49.4 µM | 52.4 | 
CC(C)(C)c1cc(NCCCn2ccnc2)n2ncc(-c3ccc(Cl)cc3)c2n1 | > 100 µM (inactive) |  | inhibition ([2]; at 12.5 µM): 1.41%
C=CCn1c(C)cc(C(=O)CSc2nnc(NCc3ccccc3)s2)c1C | > 100 µM (inactive) | 22.4 | 
Cc1nnc(NC(=O)CSc2nnc(Cc3cccn3C)n2-c2ccccc2)s1 | > 100 µM (inactive) |  | inhibition ([2]; at 0.781 µM): 11.8%
CCCCCCc1ccc(-c2ncc(N)cn2)cc1 | 22.9 µM | 99.2 | 
OCc1ccnc2c(O)cccc12 | 50.6 µM | 44.1 | 
Cc1c(Cl)cccc1N=Cc1ccc([N+](=O)[O-])s1 | > 100 µM (inactive) | 9.36 | 
Cc1cccc(/C=C/C(=O)c2cc(Br)ccc(=O)c2O)c1 | 12.2 µM | 83.2 | 
Cc1ccc(C(NC(=O)C(C)C)c2cc([N+](=O)[O-])c3cccnc3c2O)cc1 (centres undefined) | 28.8 µM | 90.4 | 
CC(C)(CNC(=S)NCCc1ccccc1)CNC(=S)NCCc1ccccc1 | > 100 µM (inactive) |  | inhibition ([2]; at 0.391 µM): 23.5%
